Measured values from US5916586A, “Personal cleansing system comprising polymeric diamond-mesh bath sponge and liquid cleanser with deodorant composition” (priority 1996, dated 1999).

Assays:
lipoxidase (ECI.13.1.13) = molecular target: T1, lipoxidase (ECI.13.1.13) (Glycine max, UniProt P08170); assay: Lipoxidase test: inhibition of oxidation of linoleic acid by lipoxidase; type: biochemical; details: test substrate made with 0.5% by weight solution of material in ethanol, borate buffer pH 9.0, increase in OD at 234 nm
T1 sequence (P08170 1-839): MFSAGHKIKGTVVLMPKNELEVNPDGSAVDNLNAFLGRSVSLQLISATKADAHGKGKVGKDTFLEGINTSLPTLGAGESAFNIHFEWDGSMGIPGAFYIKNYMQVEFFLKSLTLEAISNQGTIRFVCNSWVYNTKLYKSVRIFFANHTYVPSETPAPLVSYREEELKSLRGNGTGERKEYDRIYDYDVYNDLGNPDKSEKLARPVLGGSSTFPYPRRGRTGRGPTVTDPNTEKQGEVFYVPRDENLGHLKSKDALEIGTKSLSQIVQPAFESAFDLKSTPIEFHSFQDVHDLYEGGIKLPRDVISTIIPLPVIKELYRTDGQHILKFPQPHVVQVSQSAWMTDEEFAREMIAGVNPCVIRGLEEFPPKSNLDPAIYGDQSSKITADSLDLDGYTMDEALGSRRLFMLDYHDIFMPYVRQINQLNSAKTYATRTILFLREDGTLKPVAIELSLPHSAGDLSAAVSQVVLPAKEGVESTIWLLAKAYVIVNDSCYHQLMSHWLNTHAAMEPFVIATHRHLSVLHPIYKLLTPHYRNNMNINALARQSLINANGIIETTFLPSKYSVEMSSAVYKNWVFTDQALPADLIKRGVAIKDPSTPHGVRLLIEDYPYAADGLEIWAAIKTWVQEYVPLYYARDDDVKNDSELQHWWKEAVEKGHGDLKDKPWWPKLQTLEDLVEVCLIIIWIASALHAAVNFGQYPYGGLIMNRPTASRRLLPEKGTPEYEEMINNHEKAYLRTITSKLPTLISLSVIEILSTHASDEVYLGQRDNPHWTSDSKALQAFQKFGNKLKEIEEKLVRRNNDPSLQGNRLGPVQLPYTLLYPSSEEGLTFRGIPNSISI

[1] = Morpholine test: depression of partial vapor pressure of morpholine beyond Raoult's Law (headspace GC); details: morpholine 0.25 g + material 1 g, 37° C., 30 minutes equilibrium, headspace gas chromatography

LIC (lipoxidase-inhibiting capacity, % inhibition) (lipoxidase (ECI.13.1.13)): 100% | RVR (Raoult variance ratio) [1]: 1.21
Compound: COC(=O)c1c(C)cc(O)c(C)c1O [LRG 201]
